Source: patent US20260092061A1, “COMPOUNDS FOR TARGETED PROTEIN DEGRADATION” (Amphista Therapeutics Limited, priority 2022, published 2026)

Molecular target: T1, BRD9 (Homo sapiens, UniProt Q9H8M2)
T1 sequence (Q9H8M2 1-597): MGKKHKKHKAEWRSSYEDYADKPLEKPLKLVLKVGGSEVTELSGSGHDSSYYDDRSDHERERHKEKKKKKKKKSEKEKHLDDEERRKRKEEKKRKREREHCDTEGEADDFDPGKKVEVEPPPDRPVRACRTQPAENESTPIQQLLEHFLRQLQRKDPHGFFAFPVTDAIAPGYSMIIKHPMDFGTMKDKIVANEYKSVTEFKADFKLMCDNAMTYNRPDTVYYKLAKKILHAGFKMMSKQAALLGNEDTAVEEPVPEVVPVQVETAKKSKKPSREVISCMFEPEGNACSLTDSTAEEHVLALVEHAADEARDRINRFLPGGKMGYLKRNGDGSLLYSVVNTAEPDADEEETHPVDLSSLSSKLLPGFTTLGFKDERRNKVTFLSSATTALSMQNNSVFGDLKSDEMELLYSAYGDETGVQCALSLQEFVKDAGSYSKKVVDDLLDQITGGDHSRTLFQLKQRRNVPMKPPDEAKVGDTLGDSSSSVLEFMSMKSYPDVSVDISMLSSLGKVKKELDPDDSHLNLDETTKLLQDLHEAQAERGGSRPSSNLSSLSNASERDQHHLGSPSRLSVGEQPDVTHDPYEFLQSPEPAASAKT
Assay: BRD9 degradation, HiBiT-BRD9 KI HEK293 (LgBiT) cells, NanoGlo Lytic Endpoint assay (Assay Protocol 1)
Format: cell-based
Settings: BRD9 degradation; for Dmax at 1 µM / DC50: Table 2, Assay Protocol 1; for Dmax at 1 µM: 1 μM compound at 6 h of treatment, read-out: Assay 1 Dmax; for DC50: 6 h of treatment, read-out: Assay 1 DC50
Method: HiBiT-BRD9 KI HEK293 (LgBiT) Cells (Promega CS3023412) were seeded at 8000 cells per well (38 μL) in sterile white bottom 384 well plates (Invitrogen 164610 or Greiner 781080) and incubated overnight at 37° C. with 5% CO2. The next day, compounds were prepared at 1000× final concentration in DMSO and diluted 1:100 in media (DMEM PAN Biotech P04-03550+10% FBS ATCC 302025). 4 μL compound was added to each well of the cell plate and incubated for 6 h at 37° C. with 5% CO2 BRD9 expression was quantified using the NanoGlo Lytic Endpoint assay (Promega N3050). The lytic buffer was equilibrated to room temperature for 10-15 min before lytic reagent was prepared by adding substrate (1:50) and LgBit protein (1:100) in lytic buffer. 40 μL lytic reagent mix was added to each well of the cel plate and plates were centrifuged briefly at ˜50g. Plates were incubated with shaking (350 RPM) for 12-24 min before reading using the LUM plus module of a BMG Pherastar FSX. Data was analysed using Dotmatics software and % BRD9 remaining was calculated by normalisation to average data from high and low control wells (DMSO treated cels and no cells respectively).

Row | Compound | Dmax at 1 µM (HEK293) [%] | DC50 [nM] | Dmax (HEK293, Table 4, determined according to Assay Protocol 1, read-out: Dmax^1) [%]
1 | COc1cc(-c2cn(C)c(=O)c(C)c2C)cc(OC)c1CN1CC2CC(C1)N2C(=O)/C(C#N)=C/c1nccs1 (mixture of isomers) [BRD9l, (E/Z)-2-(3-(2,6-dimethoxy-4-(1,4,5-trimethyl-6-oxo-1,6-dihydropyridin-3-yl)benzyl)-3,6-diazabicyclo[3.1.1]heptane-6-carbonyl)-3-(thiazol-2-yl)acrylonitrile] | – | – | 50 to 70
2 | COc1cc(-c2cn(C)c(=O)c3cnccc23)cc(OC)c1CN1CCN(Cc2cccc3c2CCN(C(=O)/C(C#N)=C\c2ccc(F)cn2)C3C)CC1 (mixture of isomers) [Compound A12, (E/Z)-2-(5-((4-(2,6-dimethoxy-4-(2-methyl-1-oxo-1,2-dihydro-2,7-naphthyridin-4-yl)benzyl)piperazin-1-yl)methyl)-1-methyl-1,2,3,4-tetrahydroisoquinoline-2-carbonyl)-3-(5-fluoropyridin-2-yl)acrylonitrile] | 40 to 70 | 10 to 25 | –
3 | COc1cc(-c2cn(C)c(=O)c3cnccc23)cc(OC)c1CN1CCN(Cc2cccc3c2CCN(C(=O)/C(C#N)=C\C(C)C)C3C)CC1 (mixture of isomers) [Compound A19, (E/Z)-2-(5-((4-(2,6-dimethoxy-4-(2-methyl-1-oxo-1,2-dihydro-2,7-naphthyridin-4-yl)benzyl)piperazin-1-yl)methyl)-1-methyl-1,2,3,4-tetrahydroisoquinoline-2-carbonyl)-4-methylpent-2-enenitrile] | 40 to 70 | 1.25 to 10 | –
4 | COc1cc(-c2cn(C)c(=O)c(C)c2C)cc(OC)c1CN1CCN(Cc2cccc3c2CCN(C(=O)/C(C#N)=C/c2nc4ccccc4s2)C3C)CC1 (mixture of isomers) [Compound A20] | > 75 | 1.25 to 10 | –
5 | COc1cc(-c2cn(C)c(=O)c3cnccc23)cc(OC)c1CN1CCN(Cc2cccc3c2CCN(C(=O)/C(C#N)=C\c2ccns2)C3C)CC1 (mixture of isomers) [Compound A23, (E/Z)-2-(5-((4-(2,6-dimethoxy-4-(2-methyl-1-oxo-1,2-dihydro-2,7-naphthyridin-4-yl)benzyl)piperazin-1-yl)methyl)-1-methyl-1,2,3,4-tetrahydroisoquinoline-2-carbonyl)-3-(isothiazol-5-yl)acrylonitrile] | 40 to 70 | 1.25 to 10 | –
6 | COc1cc(-c2cn(C)c(=O)c3cnccc23)cc(OC)c1CN1CCN(C(=O)c2ccc(C3CCCN3C(=O)/C(C#N)=C/c3nccs3)cc2)CC1 (mixture of isomers) [Compound A34, (E/Z)-2-(2-(4-(4-(2,6-dimethoxy-4-(2-methyl-1-oxo-1,2-dihydro-2,7-naphthyridin-4-yl)benzyl)piperazine-1-carbonyl)phenyl)pyrrolidine-1-carbonyl)-3-(thiazol-2-yl)acrylonitrile] | 40 to 70 | 1.25 to 10 | –
7 | COc1cc(-c2cn(C)c(=O)c3cnccc23)cc(OC)c1CN1CCN(Cc2cccc3c2CCN(C(=O)/C(C#N)=C/c2c(F)cccc2F)C3C)CC1 (mixture of isomers) [Compound A35, (E/Z)-3-(2,6-difluorophenyl)-2-[5-[[4-[[2,6-dimethoxy-4-(2-methyl-1-oxo-2,7-naphthyridin-4-yl)phenyl]methyl]piperazin-1-yl]methyl]-1-methyl-3,4-dihydro-1H-isoquinoline-2-carbonyl]prop-2-enenitrile] | 40 to 70 | 1.25 to 10 | –

Further lines, with some results ahead:

Row | Dmax at 1 µM (HEK293) [%] | DC50 [nM] | Compound | Dmax (HEK293, Table 4, determined according to Assay Protocol 1, read-out: Dmax^1) [%]
8 | 40 to 70 | < 1.25 | COc1cc(-c2cn(C)c(=O)c3cnccc23)cc(OC)c1CN1CCN(Cc2cccc3c2CCN(C(=O)/C(C#N)=C/c2cccc(Br)n2)C3C)CC1 (mixture of isomers) [Compound A5, (E/Z)-3-(6-bromopyridin-2-yl)-2-(5-((4-(2,6-dimethoxy-4-(2-methyl-1-oxo-1,2-dihydro-2,7-naphthyridin-4-yl)benzyl)piperazin-1-yl)methyl)-1-methyl-1,2,3,4-tetrahydroisoquinoline-2-carbonyl)acrylonitrile] | –
9 | > 75 | < 1.25 | COc1cc(-c2cn(C)c(=O)c3cnccc23)cc(OC)c1CN1CCN(Cc2cccc3c2CCN(C(=O)/C(C#N)=C/c2nc4ccccc4s2)C3C)CC1 (mixture of isomers) [Compound A6] | –
10 | 40 to 70 | < 1.25 | COc1cc(-c2cn(C)c(=O)c3cnccc23)cc(OC)c1CN1CCN(Cc2cccc3c2CCN(C(=O)/C(C#N)=C\c2nc(C)cs2)C3C)CC1 (mixture of isomers) [Compound A9, (E/Z)-2-(5-((4-(2,6-dimethoxy-4-(2-methyl-1-oxo-1,2-dihydro-2,7-naphthyridin-4-yl)benzyl)piperazin-1-yl)methyl)-1-methyl-1,2,3,4-tetrahydroisoquinoline-2-carbonyl)-3-(4-methylthiazol-2-yl)acrylonitrile] | –
11 | 40 to 70 | 1.25 to 10 | COc1cc(-c2cn(C)c(=O)c3cnccc23)cc(OC)c1CN1CCN(Cc2cccc3c2CCN(C(=O)/C(C#N)=C\c2ccon2)C3C)CC1 (mixture of isomers) [Compound A11, (E/Z)-2-(5-((4-(2,6-dimethoxy-4-(2-methyl-1-oxo-1,2-dihydro-2,7-naphthyridin-4-yl)benzyl)piperazin-1-yl)methyl)-1-methyl-1,2,3,4-tetrahydroisoquinoline-2-carbonyl)-3-(isoxazol-3-yl)acrylonitrile] | –
12 | 40 to 70 | 1.25 to 10 | COc1cc(-c2cn(C)c(=O)c3cnccc23)cc(OC)c1CN1CCN(Cc2cccc3c2CCN(C(=O)/C(C#N)=C\c2nc(C)c(C)s2)C3C)CC1 (mixture of isomers) [Compound A13, (E/Z)-2-(5-((4-(2,6-dimethoxy-4-(2-methyl-1-oxo-1,2-dihydro-2,7-naphthyridin-4-yl)benzyl)piperazin-1-yl)methyl)-1-methyl-1,2,3,4-tetrahydroisoquinoline-2-carbonyl)-3-(4,5-dimethylthiazol-2-yl)acrylonitrile] | –
13 | 40 to 70 | 1.25 to 10 | COc1cc(-c2cn(C)c(=O)c3cnccc23)cc(OC)c1CN1CCN(Cc2cccc3c2CCN(C(=O)/C(C#N)=C\C2CCOCC2)C3C)CC1 (mixture of isomers) [Compound A17, (E/Z)-2-(5-((4-(2,6-dimethoxy-4-(2-methyl-1-oxo-1,2-dihydro-2,7-naphthyridin-4-yl)benzyl)piperazin-1-yl)methyl)-1-methyl-1,2,3,4-tetrahydroisoquinoline-2-carbonyl)-3-(tetrahydro-2H-pyran-4-yl)acrylonitrile] | –
14 | 40 to 70 | < 1.25 | COc1cc(-c2cn(C)c(=O)c3cnccc23)cc(OC)c1CN1CCN(Cc2cccc3c2CCN(C(=O)/C(C#N)=C\C(C)(C)CF)C3C)CC1 (mixture of isomers) [Compound A18, (E/Z)-2-(5-((4-(2,6-dimethoxy-4-(2-methyl-1-oxo-1,2-dihydro-2,7-naphthyridin-4-yl)benzyl)piperazin-1-yl)methyl)-1-methyl-1,2,3,4-tetrahydroisoquinoline-2-carbonyl)-5-fluoro-4,4-dimethylpent-2-enenitrile] | –
15 | 70 to 75 | < 1.25 | COc1cc(-c2cn(C)c(=O)c(C)c2C)cc(OC)c1CN1CCN(Cc2cccc3c2CCN(C(=O)/C(C#N)=C\c2nc(C)cs2)C3C)CC1 (mixture of isomers) [Compound A21] | –
16 | 40 to 70 | < 1.25 | COc1cc(-c2cn(C)c(=O)c3cnccc23)cc(OC)c1CN1CCN(Cc2cccc3c2CCN(C(=O)/C(C#N)=C\C2CCC2)C3C)CC1 (mixture of isomers) [Compound A24, (E/Z)-3-cyclobutyl-2-(5-((4-(2,6-dimethoxy-4-(2-methyl-1-oxo-1,2-dihydro-2,7-naphthyridin-4-yl)benzyl)piperazin-1-yl)methyl)-1-methyl-1,2,3,4-tetrahydroisoquinoline-2-carbonyl)acrylonitrile] | –
17 | > 75 | < 1.25 | COc1cc(-c2cn(C)c(=O)c3cnccc23)cc(OC)c1CN1CCN(Cc2cccc(C3CCCN3C(=O)/C(C#N)=C/c3nccs3)c2)CC1 (mixture of isomers) [Compound A33, (E/Z)-2-(2-(3-((4-(2,6-dimethoxy-4-(2-methyl-1-oxo-1,2-dihydro-2,7-naphthyridin-4-yl)benzyl)piperazin-1-yl)methyl)phenyl)pyrrolidine-1-carbonyl)-3(thiazol-2-yl)acrylonitrile] | –
